# In patent US11311522B1 (Cavion, Inc., priority 2018, dated 2022):
# Where two headings read alike, the source gives them in different places.
# Key:
# [1] = In vitro plasma protein binding, human; format: in vitro ADME
# [2] = In vitro plasma protein binding, dog; format: in vitro ADME
# Excerpt: (§1) CX-8998 distributes readily to the brain in rats and to brain and cerebral spinal fluid (CSF) in dogs.
# [3] = In vitro plasma protein binding, monkey; format: in vitro ADME
# Excerpt: as §1
# Cav3.3 = target: T1, Cav3.3 (Homo sapiens, UniProt Q9P0X4); experiment: Cav3.3 FLIPR calcium influx assay (HEK 293 cells); format: cell-based; conditions: for IC50: Cav3.3 FLIPR assay; for State dependence: hyperpolarized versus depolarized FLIPR potency
# T1 construct: expressed in transfected cells; host or cells: HEK 293
# T1 sequence (Q9P0X4 whole entry, species assumed): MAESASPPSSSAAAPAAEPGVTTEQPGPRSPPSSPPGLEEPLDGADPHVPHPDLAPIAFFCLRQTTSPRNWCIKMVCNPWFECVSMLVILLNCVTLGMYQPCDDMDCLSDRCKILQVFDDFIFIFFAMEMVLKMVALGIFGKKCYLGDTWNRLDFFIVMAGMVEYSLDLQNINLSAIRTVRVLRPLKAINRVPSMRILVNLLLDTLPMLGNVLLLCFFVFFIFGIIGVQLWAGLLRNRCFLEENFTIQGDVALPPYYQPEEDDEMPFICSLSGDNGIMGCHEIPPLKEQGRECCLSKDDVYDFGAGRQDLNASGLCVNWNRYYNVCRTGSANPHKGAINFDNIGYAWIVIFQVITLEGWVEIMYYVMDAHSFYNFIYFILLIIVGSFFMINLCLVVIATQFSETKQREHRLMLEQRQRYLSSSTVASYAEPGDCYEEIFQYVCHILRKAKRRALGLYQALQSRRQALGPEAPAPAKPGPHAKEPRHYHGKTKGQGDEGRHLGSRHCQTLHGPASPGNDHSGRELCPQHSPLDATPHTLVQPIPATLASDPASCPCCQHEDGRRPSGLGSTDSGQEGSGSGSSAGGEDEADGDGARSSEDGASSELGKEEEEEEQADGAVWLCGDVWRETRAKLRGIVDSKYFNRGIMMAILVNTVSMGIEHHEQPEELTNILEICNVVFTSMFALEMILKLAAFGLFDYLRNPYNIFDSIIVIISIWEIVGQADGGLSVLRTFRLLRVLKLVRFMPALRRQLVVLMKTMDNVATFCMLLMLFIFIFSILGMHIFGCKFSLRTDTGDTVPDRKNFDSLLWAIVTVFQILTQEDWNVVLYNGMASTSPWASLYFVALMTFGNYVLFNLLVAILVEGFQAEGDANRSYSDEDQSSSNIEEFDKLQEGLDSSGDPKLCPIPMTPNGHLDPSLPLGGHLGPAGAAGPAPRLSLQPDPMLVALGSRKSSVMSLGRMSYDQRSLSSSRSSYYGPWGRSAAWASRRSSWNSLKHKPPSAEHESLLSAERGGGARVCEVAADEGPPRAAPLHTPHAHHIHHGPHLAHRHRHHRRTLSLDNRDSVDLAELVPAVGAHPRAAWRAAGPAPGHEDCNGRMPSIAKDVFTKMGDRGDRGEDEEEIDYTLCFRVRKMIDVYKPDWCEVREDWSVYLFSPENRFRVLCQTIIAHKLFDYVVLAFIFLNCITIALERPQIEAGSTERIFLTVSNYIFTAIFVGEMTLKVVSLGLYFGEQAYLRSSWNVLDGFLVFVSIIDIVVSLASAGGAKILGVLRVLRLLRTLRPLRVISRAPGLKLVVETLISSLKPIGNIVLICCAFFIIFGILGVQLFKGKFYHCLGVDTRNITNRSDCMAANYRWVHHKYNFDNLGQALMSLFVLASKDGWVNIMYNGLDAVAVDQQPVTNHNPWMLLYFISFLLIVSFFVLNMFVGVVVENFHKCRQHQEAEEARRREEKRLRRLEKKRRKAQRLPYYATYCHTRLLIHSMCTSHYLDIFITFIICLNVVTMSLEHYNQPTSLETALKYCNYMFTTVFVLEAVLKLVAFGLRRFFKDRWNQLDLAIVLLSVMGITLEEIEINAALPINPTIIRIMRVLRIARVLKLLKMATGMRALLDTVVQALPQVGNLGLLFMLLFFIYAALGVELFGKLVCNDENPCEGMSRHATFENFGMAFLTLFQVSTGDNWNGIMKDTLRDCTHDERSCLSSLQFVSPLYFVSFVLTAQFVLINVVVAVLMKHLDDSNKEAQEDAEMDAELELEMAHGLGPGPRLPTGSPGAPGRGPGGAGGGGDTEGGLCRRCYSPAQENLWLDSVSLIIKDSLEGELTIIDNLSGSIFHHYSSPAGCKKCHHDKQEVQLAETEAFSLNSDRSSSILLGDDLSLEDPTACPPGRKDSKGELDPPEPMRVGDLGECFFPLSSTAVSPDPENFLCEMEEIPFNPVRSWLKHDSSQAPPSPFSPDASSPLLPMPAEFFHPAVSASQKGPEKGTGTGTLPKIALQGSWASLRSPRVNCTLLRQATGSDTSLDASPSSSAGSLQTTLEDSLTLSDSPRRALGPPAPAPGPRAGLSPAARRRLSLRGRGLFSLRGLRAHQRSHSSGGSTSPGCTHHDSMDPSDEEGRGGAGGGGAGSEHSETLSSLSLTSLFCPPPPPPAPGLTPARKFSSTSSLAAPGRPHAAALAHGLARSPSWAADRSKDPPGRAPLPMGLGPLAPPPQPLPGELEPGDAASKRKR
# [4] = Simulated Css and total active moiety, 10 mg BID; set-up: species or system human; conditions: for Css, estimated mean / Steady-state AUC24, estimated mean: CX-8998 10 mg twice daily fasted; for Cu, ss_adj: adjusted for fu and potency, 10 mg BID; for Cp, ss / Cu, ss: simulated from CX-8998 10 mg BID
# Pharmacokinetics in rats = format: in vivo, rat; conditions: for Ratio of AUC24 (metabolite/CX-8998): Rat, single oral dose 10 mg/kg of CX-8998; for AUC: rat, plasma, po, 10 mg/kg, read-out: AUC24
# Experimental: (§2) The validity and reproducibility of the assays were determined, and the precision and accuracy for calibration standards and quality control samples were examined. […] The analytes were stable in plasma under the storage and assay conditions. […] Assay performances were satisfactory and met acceptance criteria for system performance suitability, quantitation range, calibration linearity, assay accuracy and precision, and assay recovery.
# [5] = 4-week oral toxicology in Beagle dogs; conditions: dog, in vivo
# clinical = conditions: human, plasma, oral, 8 mg
# Excerpt: Subjects will be screened for study eligibility within 28 days before administration of the first dose of study drug. Subjects who meet the study eligibility criteria will be admitted to the clinical research unit in the afternoon of the day before administration of the first dose of study drug (Period 1/Day −1).
# Treatments A, B, and C will be separated by a minimum 7-day washout period. […] Administration of Treatment D may be separated from administration of Treatments A, B, and C by approximately 4 weeks to allow for analysis of the bioanalytical samples from the first 3 treatments.
# Pharmacokinetics in dogs = format: in vivo, dog; conditions: for AUC: male, dog, plasma, po, 0.5 mg/kg, read-out: AUC24
# Experimental: as §2
# [6] = tested on: T2, CYP1A2, CYP3A4, CYP2C8, CYP2C9, CYP2C19, CYP2D6; experiment: CYP inhibition in human liver microsomes; format: in vitro ADME; conditions: human liver microsomes
# T2 construct: IC50, CYP1A2, CYP3A4, CYP2C8, CYP2C9, CYP2C19, CYP2D6; other: human liver microsomes
# [7] = tested on: CYP1A2, CYP3A4, CYP2C8, CYP2C9, CYP2C19, CYP2D6, CYP2B6; experiment: CYP inhibition in human liver microsomes; format: in vitro ADME
# [8] = for Day 90 Free Margin for AUC24 at NOAEL for Dog 90-Day Toxicology / Day 90 Free Plasma AUC24 at NOAEL for Dog 90-Day Toxicology: Beagle; for Day 90 Free Plasma AUC24 at NOAEL for Dog 90-Day Toxicology: 30 mg/kg/day; for Day 90 Free Plasma AUC24 at NOAEL for Rat 90-Day Toxicology: 300 mg/kg/day
# [9] = 90-day oral toxicology in Beagle dogs; conditions: Beagle, dog, in vivo, po
# P-glycoprotein = P-glycoprotein bidirectional transport; format: in vitro ADME, human, monkey, and rat
# Excerpt: Glucuronide conjugates of the oxygenated metabolites are detected in human, monkey, and dog hepatocyte preparations. […] However, the abundance of CYP3A5, CYP2C19, and CYP2D6 in human liver microsomes is low (2%-5%) relative to the primary contributors, CYP3A4 (˜30%) and CYP2C9 (˜20%). […] Information on reproductive and developmental toxicology was obtained in a 28-day pivotal female fertility study in rats and in preliminary embryo-fetal development studies in rats and rabbits.
# [10] = In vitro plasma protein binding, rat; format: in vitro ADME
# Excerpt: as §1
# [11] = Crossover bioavailability study IR vs MR1 vs MR2 capsules: PK; set-up: AUC72hr: unit not given beside the values; conditions: for AUC72hr Ratio / Cmax Ratio: metabolite to CX-8998; for AUC72hr / Cmax / Tmax: plasma
# WAG/Rij rats = experiment: WAG/Rij rat model of absence epilepsy; format: in vivo; conditions: 10 mg/kg oral
# Excerpt: Other T-type antagonists from structurally diverse series have shown similar efficacy in this model (Broicher, 2007; Blumenfeld, 2008; Broicher, 2008; Shipe, 2008; Yang, 2008; Uebele, 2009; Russo, 2010; Russo, 2011).
# Data were scored with automated seizure analysis software, averaged, and normalized to enable treatment comparisons (FIG. 76)
# Control animals received vehicle administrations. […] Source: Merck TTA Package Description (FIG. 79).
# [12] = human plasma, read-out: In vitro plasma protein binding (converted)
# [13] = humans, read-out: free fraction
# [14] = dog plasma, read-out: In vitro plasma protein binding (converted)
# [15] = read-out: Free fraction in dog plasma
# [16] = depolarized, read-out: Depolarized FLIPR potency
# [17] = hyperpolarized, read-out: Hyperpolarized FLIPR potency
# [18] = M01, middle-aged and elderly men
# [19] = M01, middle-aged and elderly women
# [20] = rat plasma, read-out: In vitro plasma protein binding (converted)
# [21] = single 8 mg dose of MR1 CX-8998
# [22] = single 8 mg dose of MR2 CX-8998
# [23] = following a single 8 mg dose of MR1 CX-8998
# [24] = following a single 8 mg dose of MR2 CX-8998
# [25] = M02, middle-aged and elderly men
# [26] = M02, middle-aged and elderly women
smiles,measurement,setting,value
C=C(C)c1ccc(CC(=O)N[C@H](C)c2ccc(OCC(F)(F)F)cn2)cc1 [M01],fraction unbound,"[1]; human plasma, read-out: Human-free fraction",< 0.001
same,fraction unbound,[1]; [12],< 0.001
same,fraction unbound,[1]; [13],< 0.001
same,fraction unbound,[2]; [14],0.003
same,fraction unbound,"[2]; dogs, read-out: free fraction",0.003
same,fraction unbound,[2]; [15],0.003
same,fraction unbound,[3],0.004
same,IC50,Cav3.3; [16],2.3 nM
same,IC50,Cav3.3; [17],86 nM
same,State dependence,Cav3.3,37 fold
same,Potency relative to CX-8998,[4],1.57
same,"Css, estimated mean",[4]; [18],1167 nM
same,"Steady-state AUC24, estimated mean",[4]; [18],28.008 µM·h
same,"Css, estimated mean",[4]; [19],1146 nM
same,"Steady-state AUC24, estimated mean",[4]; [19],27.504 µM·h
same,"Css, estimated mean","[4]; M01, young men",771 nM
same,"Steady-state AUC24, estimated mean","[4]; M01, young men",18.504 µM·h
same,"Cu, ss_adj",[4],<1.2 nM
same,"Cp, ss",[4],771 nM
same,"Cu, ss",[4],<0.8 nM
same,Ratio of AUC24 (metabolite/CX-8998),Pharmacokinetics in rats; Female,0.52
same,Ratio of AUC24 (metabolite/CX-8998),Pharmacokinetics in rats; Male,0.63
same,AUC,Pharmacokinetics in rats; female,8.7 µM·h
same,AUC,Pharmacokinetics in rats; male,3.7 µM·h
same,Safety margin (AUC24) at the NOEL over expected clinical exposure,[5],~6 fold
same,AUC(0-t),clinical,6.88 µM·h
same,Cmax,clinical,124 nM
same,Tmax,clinical,29 h
same,Ratio of AUC24 (metabolite/CX-8998),"Pharmacokinetics in dogs; Dog, Male, single oral dose 0.5 mg/kg of CX-8998",0.21
same,AUC,Pharmacokinetics in dogs,1.4 µM·h
same,IC50,[6],> 20 µM
same,Time-dependent inhibition of CYP3A4 or CYP2B6,[7],insignificant
same,Day 90 Free Margin for AUC24 at NOAEL for Dog 90-Day Toxicology,[8]; female,>16
same,Day 90 Free Plasma AUC24 at NOAEL for Dog 90-Day Toxicology,[8]; female,<309 nM · hr
same,Day 90 Free Margin for AUC24 at NOAEL for Rat 90-Day Toxicology,"[8]; female, rat",>49
same,Day 90 Free Plasma AUC24 at NOAEL for Rat 90-Day Toxicology,"[8]; female, rat",<936 nM · hr
same,Day 90 Free Margin for AUC24 at NOAEL for Dog 90-Day Toxicology,[8]; male,>19
same,Day 90 Free Plasma AUC24 at NOAEL for Dog 90-Day Toxicology,[8]; male,<363 nM · hr
same,Day 90 Free Margin for AUC24 at NOAEL for Rat 90-Day Toxicology,"[8]; male, rat",>26
same,Day 90 Free Plasma AUC24 at NOAEL for Rat 90-Day Toxicology,"[8]; male, rat",<500 nM · hr
same,AUC,"[9]; female, 10 mg/kg",38.6 µM·h
same,AUC,"[9]; female, 30 mg/kg",103 µM·h
same,AUC,"[9]; female, 100 mg/kg/day",431 µM·h
same,AUC,"[9]; male, 10 mg/kg",54.9 µM·h
same,AUC,"[9]; male, 30 mg/kg",121 µM·h
same,AUC,"[9]; male, 100 mg/kg/day",1770 µM·h
same,P-glycoprotein substrate or inhibitor activity,P-glycoprotein,did not demonstrate any activity as a substrate or inhibitor
same,fraction unbound,[10]; [20],0.004
same,fraction unbound,"[10]; rats, read-out: free fraction",0.004
same,AUC72hr Ratio,[11]; single 8 mg dose of IR CX-8998,0.92
same,Cmax Ratio,[11]; single 8 mg dose of IR CX-8998,0.14
same,AUC72hr Ratio,[11]; [21],0.95
same,Cmax Ratio,[11]; [21],0.27
same,AUC72hr Ratio,[11]; [22],0.90
same,Cmax Ratio,[11]; [22],0.35
same,AUC72hr,[11]; [23],7118
same,Cmax,[11]; [23],121 nM
same,Tmax,[11]; [23],26 h
same,AUC72hr,[11]; [24],6395
same,Cmax,[11]; [24],113 nM
same,Tmax,[11]; [24],39 h
same,Percent of inhibition,WAG/Rij rats,71%
C[C@@H](NC(=O)Cc1ccc(C(C)(C)O)cc1)c1ccc(OCC(F)(F)F)cn1 [M02],fraction unbound,[1]; [12],0.14
same,fraction unbound,[1]; [13],0.14
same,fraction unbound,[2]; [14],0.18
same,fraction unbound,"[2]; dogs, read-out: free fraction",0.18
same,fraction unbound,[2]; [15],0.18
same,fraction unbound,[3],0.17
same,IC50,Cav3.3; [16],17 nM
same,IC50,Cav3.3; [17],2840 nM
same,State dependence,Cav3.3,166 fold
same,"Css, estimated mean",[4]; [25],683 nM
same,"Steady-state AUC24, estimated mean",[4]; [25],15.312 µM·h
same,"Css, estimated mean",[4]; [26],566 nM
same,"Steady-state AUC24, estimated mean",[4]; [26],13.584 µM·h
same,"Css, estimated mean","[4]; M02, young men",343 nM
same,"Steady-state AUC24, estimated mean","[4]; M02, young men",8.232 µM·h
same,"Cu, ss_adj",[4],10.1 nM
same,"Cp, ss",[4],343 nM
same,"Cu, ss",[4],48 nM
same,AUC,Pharmacokinetics in rats; female,31 µM·h
same,AUC,Pharmacokinetics in rats; male,10 µM·h
same,Safety margin (AUC24) at the NOEL over expected clinical exposure,[5],~23 fold
same,AUC(0-t),clinical,3.67 µM·h
same,Cmax,clinical,122 nM
same,AUC,Pharmacokinetics in dogs,7.8 µM·h
same,IC50,[6],> 20 µM
same,Time-dependent inhibition of CYP3A4 or CYP2B6,[7],insignificant
same,Day 90 Free Margin for AUC24 at NOAEL for Rat 90-Day Toxicology,[8]; Female rats vs human 10 mg BID,129
same,Day 90 Free Margin for Cmax at NOAEL for Rat 90-Day Toxicology,[8]; Male rats vs human 10 mg BID (fed),117
same,Day 90 Free Margin for AUC24 at NOAEL for Dog 90-Day Toxicology,[8]; female,33
same,Day 90 Free Plasma AUC24 at NOAEL for Dog 90-Day Toxicology,[8]; female,"37,620 nM · hr"
same,Day 90 Free Plasma AUC24 at NOAEL for Rat 90-Day Toxicology,"[8]; female, rat","148,190 nM · hr"
same,Day 90 Free Margin for AUC24 at NOAEL for Dog 90-Day Toxicology,[8]; male,33
same,Day 90 Free Plasma AUC24 at NOAEL for Dog 90-Day Toxicology,[8]; male,"38,340 nM · hr"
same,Day 90 Free Margin for AUC24 at NOAEL for Rat 90-Day Toxicology,"[8]; male, rat",65
same,Day 90 Free Plasma AUC24 at NOAEL for Rat 90-Day Toxicology,"[8]; male, rat","74,820 nM · hr"
same,AUC,"[9]; female, 10 mg/kg",103 µM·h
same,AUC,"[9]; female, 30 mg/kg",209 µM·h
same,AUC,"[9]; female, 100 mg/kg/day",339 µM·h
same,AUC,"[9]; male, 10 mg/kg",149 µM·h
same,AUC,"[9]; male, 30 mg/kg",213 µM·h
same,AUC,"[9]; male, 100 mg/kg/day",1800 µM·h
same,P-glycoprotein substrate or inhibitor activity,P-glycoprotein,showed increased efflux in the rat and monkey assays
same,fraction unbound,[10]; [20],0.29
same,fraction unbound,"[10]; rats, read-out: free fraction",0.29
same,Tmax,[11]; following a single 8 mg dose of IR CX-8998,5 h
same,AUC72hr,[11]; [23],3343
same,Cmax,[11]; [23],94 nM
same,Tmax,[11]; [23],11 h
same,AUC72hr,[11]; [24],3142
same,Cmax,[11]; [24],73 nM
same,Tmax,[11]; [24],16 h
same,Percent of inhibition,WAG/Rij rats,67%
